In a melting point compilation (Tetko et al.; mined from patent text by program, amines drawn as free bases though some values may be those of a salt) one finds melting point data, which are given here for 84 compounds.

Some results are limits rather than exact numbers.

`COc1cc(C(=O)Oc2ccccc2C(C)=O)cc([N+](=O)[O-])c1OC` yielded a melting point of 108 to 109 °C.

As for `CC1(C)CCOc2ccc(C(=O)c3ccc(C(=O)O)cc3)cc21`, the melting point came to 199 °C.

`CCOC(=O)C(C#N)=C(Nc1ccc(N(CC)CC)cc1)SC`: the melting point is 100 °C.

For the compound `CCCCOc1ccc(Cc2cc3c(cn2)COC3)cc1`, the melting point was in the range of 213 to 215 °C.

Compound `CC(C)(C)OC(=O)NCC(=O)Oc1cc(Cl)c(Cl)cc1Cl` returned a melting point of 100 to 103 °C.

With `Cc1cc(C)n(C(=O)CCl)n1`, the melting point came out at 62 °C.

With `CSC1=N[C@@H](c2ccccc2)[C@H](c2ccccc2)N1` (relative stereo), the melting point fell in the range of 132 to 134 °C.

The compound `CC[C@H](COC)n1cc(Cl)nc(N2CCc3cc(Cl)cc(Cl)c32)c1=O` displayed a melting point of 143 to 146 °C.

Compound `CS(=O)(=O)c1ccc(/C(=C(\CCO)C(=O)O)c2ccc(Cl)cc2)cc1` showed a melting point of 144 to 145 °C.

`CCNC(=O)Cn1c(=O)c(=O)[nH]c2cc([N+](=O)[O-])c(-n3cccc3)cc21`: the melting point is greater than 300 °C.

The compound `CC(=O)COC1CC2C3CCC4=CC(=O)C=CC4(C)C3(F)C(O)CC2(C)C1(O)C(=O)CCl` (centres undefined) returned a melting point of 226 to 227 °C.

The compound `COc1cc(OC)nc(CCl)n1` displayed a melting point of 40 to 42 °C.

Compound `CCCCCCCCCCCCc1nnc(C(C(=O)Nc2c(C(C)C)cccc2C(C)C)c2ccccc2)o1` (centres undefined) displayed a melting point of 82 to 84 °C.

On to `CCCCc1oc2ccc(C(=O)OC)cc2c1C(=O)c1ccc(OCCCNCC(C)(C)C)cc1`, for which the melting point was in the range of 61 to 63 °C.

Turning to `COc1ccc(C(=Cc2c(Cl)cncc2Cl)c2ccccc2)cc1OC1CCCC1`, the melting point lay within 138 to 140 °C.

For `Cc1c(Br)c(=O)oc2nn(Cc3ccccc3Cl)c(C)c12`, the melting point lay in the range of 206 to 208 °C.

Compound `CCc1nc2c(cnn2CC)c(NC2CCOCC2)c1CNC(=O)c1cc(C)cc(C(=O)NCc2ccc(C)c(-c3cccc(C=O)c3)c2)c1` gave a melting point of 117 to 120 °C.

Compound `CSC(=O)C(=O)c1ccc(NC=O)nc1` gave a melting point of 152 to 154 °C.

In turn, `O=C(O)C1=Cc2cc(Cl)ccc2N(Cc2ccc(C(F)(F)F)cc2)C1C(F)(F)F` (centres undefined) gave a melting point of 229 to 231 °C.

Take `CC[C@@H](C(N)=O)n1nnc2cc(Br)ccc21`: the melting point was 205 to 207 °C.

`COc1cc([N+](=O)[O-])c(N)cc1Cl`: the melting point fell in the range of 128 to 129 °C.

`CNC(=O)c1cc(=NS(=O)(=O)c2ccccc2)c2c(Cl)cc(Cl)cc2[nH]1`: the melting point was in the range of 196 to 197 °C.

Regarding `CCOC(=O)c1c(C(F)(F)F)nc(C(F)(F)Cl)c(C(=O)OC)c1N1CCCC1`, the melting point lay within 72 to 73.5 °C.

`CC(C)(CC(=O)c1ccc2c(c1)CC(N1C(=O)c3ccccc3C1=O)C2)C(=O)O` (centres undefined) registered a melting point of 238 to 240 °C.

The compound `CCN1C(=O)C(=C2C=C(N3CCCC3)CC(C)(C)C2)C(=O)N(CC)C1=S` yielded a melting point of 226 to 227 °C.

With `C=C(c1ccccc1)c1ccc2nc(N)n(S(=O)(=O)N(C)C)c2c1`, the melting point was 201 to 202 °C.

`COc1cc(C)ccc1Oc1ccc(Br)cc1C=O` returned a melting point of 89 to 90 °C.

Turning to `CC(C)[Si](Oc1ccc([C@@H](O)[C@@H](C)N2CCC(O)(c3ccccc3)CC2)cc1F)(C(C)C)C(C)C` (relative stereo), the melting point was 140 to 141 °C.

`CC(C)C(NC(=O)OCc1ccccn1)C(=O)NC(Cc1ccccc1)C(O)C(Cc1ccccc1)NC(=O)C(NC(=O)OCc1ccccn1)C(C)C` (centres undefined) returned a melting point of 155 to 156 °C.

Compound `O=C(Nc1ccc(Oc2ccnc(NCCN3CCCC3)n2)c2ccccc12)c1cc(F)cc(N2CCCCC2)c1` showed a melting point of 92 to 94 °C.

As for `COC(=O)C(=O)c1cn2c3c(cccc13)CCC2`, the melting point lay in the range of 105 to 108 °C.

`COc1ccc2cc(C(O)C(C)N3CCC(NC(=O)c4ccccc4)CC3)ccc2c1` (centres undefined) had a melting point of 175 to 177 °C.

`CN(c1cccc2cc(C3=NCCS3)[nH]c12)S(=O)(=O)c1cccs1` gave a melting point of 192 to 193 °C.

With `Cc1coc2ncnc(NCCc3ccc(Cl)cc3)c12`, the melting point is 140 °C.

In the case of `O=C(O)C1CCC2CCC(=O)N21` (centres undefined), the melting point fell in the range of 145 to 148 °C.

In turn, `CC(C)(CCl)C(OC(=O)C(Cl)Cl)C(Oc1ccc(Cl)cc1)n1ccnc1` (centres undefined) had a melting point of 108 to 110 °C.

For `CCOc1ccc(-c2nn(C(C)c3oc4ccccc4c(=O)c3-c3cccc(F)c3)c3ncnc(N)c23)cc1F` (centres undefined), the melting point lay in the range of 216 to 218 °C.

In turn, `COc1ccc2c(c1)CCCC2N(CC(=O)O)C(=O)C(C)CSC(C)=O` (centres undefined) gave a melting point of 158 to 161 °C.

As for `O=[N+]([O-])c1cnn(-c2c(Cl)cc(Cl)cc2Cl)c1O`, the melting point lay in the range of 106 to 115 °C.

Consider `O=C(O)c1cn([C@@H]2C[C@@H]2F)c2cc(N3C[C@@H]4NCCO[C@H]4C3)c(F)cc2c1=O`, for which the melting point is greater than 250 °C.

The compound `Cc1cc(C(C)C)c(S(C)(=O)=O)cc1C(=O)N=C(N)N` registered a melting point of 220 to 223 °C.

`Cn1cc(C(=O)NCc2ccc(Cl)cc2)c(=O)c2cc(CN3CCOCC3)cc(C#Cc3ccncc3)c21`: the melting point fell in the range of 200 to 202 °C.

On to `Cc1cc(SC2=C(O)CC(CCc3cccs3)(C(C)C)OC2=O)c(C(C)(C)C)cc1CO` (centres undefined), for which the melting point lay in the range of 73 to 77 °C.

Take `Cc1c(CCc2ccc3nc(N)sc3c2)ncn1C(c1ccccc1)(c1ccccc1)c1ccccc1`: the melting point was in the range of 200 to 203 °C.

For `CCOC(=O)c1cnc2c(OC)cccc2c1Nc1ccc(O)cc1C`, the melting point was 277 to 279 °C.

Compound `COc1ccc(Cl)nc1N` displayed a melting point of 134 to 135 °C.

`O=[N+]([O-])c1cc([N+](=O)[O-])c(Nc2ccc3ccccc3c2[N+](=O)[O-])c(C(F)(F)F)c1` showed a melting point of 213 to 215 °C.

`NC(=O)C(=O)c1c2n(c3ccccc13)CCNCC2` came in with a melting point of 214 to 215 °C.

`CC(C)(O)C(=O)Nc1ccc(S(=O)(=O)c2ccccc2)cc1F` gave a melting point of 156 °C.

In turn, `CNC(=O)c1ccc(-c2ccc3oc(C4CCN(C(=O)OC(C)C)CC4)nc3c2)cn1` yielded a melting point of 158 to 161 °C.

Compound `COC(=O)CCCCc1cc2c(n1-c1ccccc1)CC(O)C2` (centres undefined) came in with a melting point of 83 to 85.5 °C.

As to `COc1c(Cl)cc(N2C(=O)N3CCCC3(Cc3ccc(C#N)cc3)C2=O)cc1Cl` (centres undefined), the melting point is 95.1 °C.

Consider `O=C1C(=O)c2ccccc2C2=C1SCC1(CCN(Cc3c(F)cccc3Cl)CC1)O2`, for which the melting point was 90 to 92 °C.

The compound `CC(C(N)=O)c1ccc2c(c1)Oc1ccccc1CC2=O` (centres undefined) registered a melting point of 159 to 160 °C.

In turn, `CN1CCc2c(c3ccccc3n2CCc2nc(-c3ccncc3)cs2)C1` displayed a melting point of 158 to 160 °C.

`CC(=O)OC1NC(=O)C1C(C)O[Si](C)(C)C(C)(C)C(C)C` (centres undefined) showed a melting point of 80 to 81 °C.

In turn, `COc1c(N2CC[C@@H](C3(NCCO)CC3)C2)c(F)cc2c(=O)c(C(=O)O)cn([C@@H]3C[C@@H]3F)c12` displayed a melting point of 153 to 155 °C.

`CC1=C(C(=O)OC(C)C)C(c2cccc([N+](=O)[O-])c2)n2c(cc(=O)n2Cc2ccccc2)N1` (centres undefined) had a melting point of 184 to 185 °C.

In the case of `CCN(C)c1nc(-c2cc(OC)cc(OC)c2)nc2sc(C#N)c(C)c12`, the melting point is 145 to 148 °C.

For the compound `COC(=O)C(O)C(CC(C)C)NCc1ccccc1` (centres undefined), the melting point is 89 to 90 °C.

In turn, `CN1CCC(=O)N(c2ccc(Cl)cc2Cl)C1=O` registered a melting point of 122 to 125 °C.

`CC(C)c1nc(C(O)(C(F)(F)F)C(F)(F)F)[nH]c1-c1ccc(S(C)(=O)=O)cc1`: the melting point is 182 to 184 °C.

As to `C=CCc1cc(C=C2N=C(C)OC2=O)ccc1OC(C)=O`, the melting point was in the range of 108 to 109 °C.

As for `COc1ccc(CSC2=NC(c3cccc(Cl)c3Cl)C(C(=O)OC(C)C)=C(C)N2)cc1` (centres undefined), the melting point lay in the range of 98 to 100 °C.

Compound `Nc1sc2c(c1C(=O)c1ccc3ccccc3c1)CCN(Cc1ccc(F)cc1)C2` came in with a melting point of 94 to 96 °C.

Take `CC(C)(C#N)CNC(=O)c1n[nH]cc1NC(=O)c1ccccn1`: the melting point lay in the range of 238 to 240 °C.

`COC1=C(OC)C(=O)C2=C(CC(CCCCCCCC(N)=O)(C(N)=O)C2)C1=O` gave a melting point of 140 to 143 °C.

In turn, `CC(C)(C)OC(=O)N1CCC(Oc2ccc(C3=NNC(=O)CC3)c(F)c2)CC1` showed a melting point of 146 to 148 °C.

As to `C=Cn1ccnc1C(O)(c1ccccc1)c1ccccc1C(C)(C)C` (centres undefined), the melting point is 152 to 153 °C.

The compound `CC1=C(CCN(O)C(N)=O)/C(=C/c2ccc(S(C)=O)cc2)c2ccccc21` (centres undefined) yielded a melting point of 166 to 169 °C.

Consider `CSc1ccc(-c2nn(Cc3cccnc3)c(=O)cc2-c2ccc(Cl)cc2)cc1`, for which the melting point amounted to 148 °C.

For `N#Cc1cn(-c2c(Cl)cc(C(F)(F)F)cc2Cl)c(N)c1I`, the melting point was 130 to 132 °C.

The compound `CCCOc1ccc(CCCOc2ccc3c(c2)C=C(C(=O)Nc2ccc(CN(C)C4CCOCC4)cc2)CCS3(=O)=O)cc1` displayed a melting point of 178 to 181 °C.

The compound `O=C(Nc1ccc(N2CC3CCC3C2)nc1)c1cc2cc(C(F)(F)F)cnc2n1Cc1cccc(F)c1` (centres undefined) gave a melting point of 172 to 174 °C.

Compound `OCC1C=CC(n2cnc3c(Cl)ncnc32)C1` (centres undefined) returned a melting point of 121 to 124 °C.

`COc1ccc(C(=O)Nc2c(Cl)cncc2Cl)c2c3cc(Cl)ccc3n(Cc3ccc(F)cc3)c12` registered a melting point of 249 to 250 °C.

Consider `CCNC(=NC#N)NCCN(CC1CCc2ccccc2O1)C(=O)OC(C)(C)C` (centres undefined), for which the melting point amounted to 115 °C.

On to `N#CSCC(Cl)=C(Cl)CCl`, for which the melting point is 60 to 63 °C.

Take `CCC(C)C(C)CNc1cccc(-c2ccnc3c(C(=O)c4cccs4)cnn23)c1` (centres undefined): the melting point lay within 84 to 86 °C.

Turning to `O=C(Nc1cnccn1)N1CCN(c2nc(-c3ccccc3)cs2)CC1`, the melting point fell in the range of 134 to 135 °C.

Compound `c1ccc(P(c2ccccc2)c2cccc3c2-c2c(cccc2P(c2ccccc2)c2ccccc2)OCCCO3)cc1` yielded a melting point of 85 °C.

As for `CCCCn1c(=O)c2c(NC)n[nH]c2n(CCOCc2ccccc2)c1=O`, the melting point was 214 to 216 °C.

As to `CN(C)CCCN=Cc1ccc2ccccc2c1`, the melting point fell in the range of 29 to 31 °C.

As to `O=c1nc(-c2cccc(-c3ccco3)n2)sc2ccccc12`, the melting point was determined as 218 °C.
